Assay results from ChEMBL document CHEMBL3885881, “DrugMatrix”.

Species: Rattus norvegicus
Assay: DrugMatrix - Regimen: Daily Repeat
Assay type: toxicity, organism-based, Sprague-Dawley
Set-up: regimen Daily Repeat, gender Male, age 6-8 weeks
Conditions: in vivo, po, route oral GAVAGE, vehicle 100 % WATER; for ABSOLUTE BASOPHIL / ABSOLUTE EOSINOPHIL / ABSOLUTE LYMPHOCYTE / ABSOLUTE MONOCYTE / ABSOLUTE SEGMENTED NEUTROPHIL / BASOPHIL / EOSINOPHIL / ERYTHROCYTE COUNT / HEMATOCRIT / HEMOGLOBIN / LEUKOCYTE COUNT / LYMPHOCYTE / MEAN CORPUSCULAR HEMOGLOBIN / MEAN CORPUSCULAR HEMOGLOBIN CONCENTRATION / MEAN CORPUSCULAR VOLUME / MONOCYTE / NEUTROPHIL / NUCLEATED RED BLOOD CELLS / PLATELET COUNT: tissue Blood; for ALANINE AMINOTRANSFERASE / ALBUMIN / ALKALINE PHOSPHATASE / ASPARTATE AMINOTRANSFERASE / BLOOD UREA NITROGEN / CARBON DIOXIDE / CHLORIDE / CHOLESTEROL / CREATINE PHOSPHOKINASE / CREATININE / GLUCOSE / LACTATE DEHYDROGENASE / LIPASE / PHOSPHORUS / POTASSIUM / SODIUM / TOTAL BILIRUBIN / TOTAL PROTEIN / URIC ACID: tissue Plasma
[1] = 900 mg/kg, 120 h, dose level Low, time 5 day
[2] = 5000 mg/kg, 72 h, dose level High, time 3 day
[3] = 5000 mg/kg, 120 h, dose level High, time 5 day

Clc1ccc(C(c2ccccc2Cl)C(Cl)Cl)cc1 (centres undefined) [MITOTANE]
ABSOLUTE BASOPHIL [1]: 0 CELLS/uL | ABSOLUTE EOSINOPHIL [1]: 0 CELLS/uL | ABSOLUTE LYMPHOCYTE [1]: 11920 CELLS/uL | ABSOLUTE MONOCYTE [1]: 138 CELLS/uL | ABSOLUTE SEGMENTED NEUTROPHIL [1]: 942 CELLS/uL | BASOPHIL [1]: 0% | EOSINOPHIL [1]: 0% | ERYTHROCYTE COUNT [1]: 5.65 x10E6/uL | HEMATOCRIT [1]: 36% | HEMOGLOBIN [1]: 14.27 G/DL | LEUKOCYTE COUNT [1]: 13 x10E3/uL | LYMPHOCYTE [1]: 91.67% | MEAN CORPUSCULAR HEMOGLOBIN [1]: 25.3 pg | MEAN CORPUSCULAR HEMOGLOBIN CONCENTRATION [1]: 39.6 G/DL | MEAN CORPUSCULAR VOLUME [1]: 63.73 fL | MONOCYTE [1]: 1% | NEUTROPHIL [1]: 7.33% | NUCLEATED RED BLOOD CELLS [1]: 0 /100WBC | PLATELET COUNT [1]: 1407.33 x10E3/uL | ALANINE AMINOTRANSFERASE [1]: 52 u/L | ALBUMIN [1]: 4.07 G/DL | ALKALINE PHOSPHATASE [1]: 421.33 u/L | ASPARTATE AMINOTRANSFERASE [1]: 89.67 u/L | BLOOD UREA NITROGEN [1]: 13.67 mg/dL | CARBON DIOXIDE [1]: 30.67 mmol/L | CHLORIDE [1]: 100 MEQ/L | CHOLESTEROL [1]: 71 mg/dL | CREATINE PHOSPHOKINASE [1]: 382 u/L | CREATININE [1]: 0.2 mg/dL | GLUCOSE [1]: 148.67 mg/dL | LACTATE DEHYDROGENASE [1]: 632.67 u/L | LIPASE [1]: 11 u/L | PHOSPHORUS [1]: 12.57 mg/dL | POTASSIUM [1]: 6.42 MEQ/L | SODIUM [1]: 142.8 MEQ/L | TOTAL BILIRUBIN [1]: 0.13 mg/dL | TOTAL PROTEIN [1]: 6.03 G/DL | URIC ACID [1]: 2.17 mg/dL | ABSOLUTE BASOPHIL [2]: 0 CELLS/uL | ABSOLUTE EOSINOPHIL [2]: 124.33 CELLS/uL | ABSOLUTE LYMPHOCYTE [2]: 15356 CELLS/uL | ABSOLUTE MONOCYTE [2]: 296.33 CELLS/uL | ABSOLUTE SEGMENTED NEUTROPHIL [2]: 556.67 CELLS/uL | BASOPHIL [2]: 0% | EOSINOPHIL [2]: 0.67% | ERYTHROCYTE COUNT [2]: 5.76 x10E6/uL | HEMATOCRIT [2]: 36.73% | HEMOGLOBIN [2]: 14.3 G/DL | LEUKOCYTE COUNT [2]: 16.33 x10E3/uL | LYMPHOCYTE [2]: 94.67% | MEAN CORPUSCULAR HEMOGLOBIN [2]: 24.83 pg | MEAN CORPUSCULAR HEMOGLOBIN CONCENTRATION [2]: 38.93 G/DL | MEAN CORPUSCULAR VOLUME [2]: 63.8 fL | MONOCYTE [2]: 1.67% | NEUTROPHIL [2]: 3% | NUCLEATED RED BLOOD CELLS [2]: 0 /100WBC | PLATELET COUNT [2]: 1407.33 x10E3/uL | ALANINE AMINOTRANSFERASE [2]: 75.67 u/L | ALBUMIN [2]: 3.93 G/DL | ALKALINE PHOSPHATASE [2]: 512.67 u/L | ASPARTATE AMINOTRANSFERASE [2]: 87 u/L | BLOOD UREA NITROGEN [2]: 12.33 mg/dL | CARBON DIOXIDE [2]: 32.67 mmol/L | CHLORIDE [2]: 101 MEQ/L | CHOLESTEROL [2]: 72.33 mg/dL | CREATINE PHOSPHOKINASE [2]: 440.67 u/L | CREATININE [2]: 0.19 mg/dL | GLUCOSE [2]: 123.33 mg/dL | LACTATE DEHYDROGENASE [2]: 189.33 u/L | LIPASE [2]: 10.33 u/L | PHOSPHORUS [2]: 11.37 mg/dL | POTASSIUM [2]: 6.63 MEQ/L | SODIUM [2]: 144.03 MEQ/L | TOTAL BILIRUBIN [2]: 0.1 mg/dL | TOTAL PROTEIN [2]: 6.13 G/DL | URIC ACID [2]: 1.53 mg/dL | ABSOLUTE BASOPHIL [3]: 0 CELLS/uL | ABSOLUTE EOSINOPHIL [3]: 32.67 CELLS/uL | ABSOLUTE LYMPHOCYTE [3]: 11464 CELLS/uL | ABSOLUTE MONOCYTE [3]: 86.67 CELLS/uL | ABSOLUTE SEGMENTED NEUTROPHIL [3]: 983.33 CELLS/uL | BASOPHIL [3]: 0% | EOSINOPHIL [3]: 0.33% | ERYTHROCYTE COUNT [3]: 5.42 x10E6/uL | HEMATOCRIT [3]: 34.3% | HEMOGLOBIN [3]: 13.47 G/DL | LEUKOCYTE COUNT [3]: 12.57 x10E3/uL | LYMPHOCYTE [3]: 91.33% | MEAN CORPUSCULAR HEMOGLOBIN [3]: 24.83 pg | MEAN CORPUSCULAR HEMOGLOBIN CONCENTRATION [3]: 39.3 G/DL | MEAN CORPUSCULAR VOLUME [3]: 63.2 fL | MONOCYTE [3]: 0.67% | NEUTROPHIL [3]: 7.67% | NUCLEATED RED BLOOD CELLS [3]: 0 /100WBC | PLATELET COUNT [3]: 1284 x10E3/uL | ALANINE AMINOTRANSFERASE [3]: 63.67 u/L | ALBUMIN [3]: 4.07 G/DL | ALKALINE PHOSPHATASE [3]: 426.67 u/L | ASPARTATE AMINOTRANSFERASE [3]: 73 u/L | BLOOD UREA NITROGEN [3]: 15 mg/dL | CARBON DIOXIDE [3]: 34.67 mmol/L | CHLORIDE [3]: 97.33 MEQ/L | CHOLESTEROL [3]: 99.67 mg/dL | CREATINE PHOSPHOKINASE [3]: 400.67 u/L | CREATININE [3]: 0.19 mg/dL | GLUCOSE [3]: 133.33 mg/dL | LACTATE DEHYDROGENASE [3]: 123.33 u/L | LIPASE [3]: 11.33 u/L | PHOSPHORUS [3]: 11.97 mg/dL | POTASSIUM [3]: 6.85 MEQ/L | SODIUM [3]: 141.7 MEQ/L | TOTAL BILIRUBIN [3]: 0.2 mg/dL | TOTAL PROTEIN [3]: 6.37 G/DL | URIC ACID [3]: 1.57 mg/dL
